Reference: ChEMBL document CHEMBL1743341, “Cytochrome p450 enzymes mechanism based inhibitors: common sub-structures and reactivity” (Curr Drug Metab, 2005)

Assays:
Cytochrome P450 3A4 [1] = biological target: T1, Cytochrome P450 3A4 (Homo sapiens, UniProt P08684); assay: Mechanism based inhibition of human cytochrome P450 3A4 measured by lovastatin 6'-beta hydroxylase activity; type: ADME
Cytochrome P450 2D6 = Cytochrome P450 2D6 (Homo sapiens, UniProt P10635); assay: (§1) Mechanism based inhibition of human cytochrome P450 2D6 measured by dextromethorphan O-demethylation using human liver microsomes; type: ADME, Microsome
CYP2D6 = CYP2D6 (Homo sapiens, UniProt P10635); assay: as §1; type: ADME, Microsome; settings: human, human liver microsomes, probe dextromethorphan
Cytochrome P450 3A4 [2] = biological target: T1, Cytochrome P450 3A4; assay: Mechanism based inhibition of human cytochrome P450 3A4 measured by testosterone 6-beta hydroxylation; type: ADME
CYP3A4 = CYP3A4 (Homo sapiens, UniProt P08684); assay: (§2) Mechanism based inhibition of human cytochrome P450 3A4 measured by nifedipine oxidation, omeprazole 3-hydroxylation and omeprazole sulfoxydation; type: ADME; settings: human
Cytochrome P450 3A4 [3] = biological target: T1, Cytochrome P450 3A4; assay: as §2; type: ADME
Cytochrome P450 2B1 [4] = biological target: T2, Cytochrome P450 2B1 (Rattus norvegicus, UniProt P00176); assay: Mechanism based inhibition of rat cytochrome P450 CYP2B1 measured by androstenedione 16-beta-hydroxylation and R- and S- warfarin hydroxylation; type: ADME
T2 sequence (P00176 whole entry): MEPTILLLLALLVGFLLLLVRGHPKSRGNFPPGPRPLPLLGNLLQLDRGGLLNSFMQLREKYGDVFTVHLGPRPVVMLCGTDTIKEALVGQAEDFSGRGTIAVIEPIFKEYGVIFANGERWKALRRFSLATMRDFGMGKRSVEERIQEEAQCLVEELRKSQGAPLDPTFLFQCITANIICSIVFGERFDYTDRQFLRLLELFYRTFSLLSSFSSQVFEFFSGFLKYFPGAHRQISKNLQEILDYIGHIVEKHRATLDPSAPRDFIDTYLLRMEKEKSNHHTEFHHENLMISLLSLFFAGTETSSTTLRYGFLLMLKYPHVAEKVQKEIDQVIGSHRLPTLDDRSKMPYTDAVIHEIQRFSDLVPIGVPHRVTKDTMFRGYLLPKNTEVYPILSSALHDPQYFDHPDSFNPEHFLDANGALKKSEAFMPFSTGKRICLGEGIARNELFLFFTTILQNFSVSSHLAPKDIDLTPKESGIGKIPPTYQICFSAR

Cytochrome P450 2B4 [5] = biological target: T3, Cytochrome P450 2B4 (Oryctolagus cuniculus, UniProt P00178); assay: (§3) Mechanism based inhibition of rabbit cytochrome P450 CYP2B4 measured by 7-EFC O-deethylation activity; type: ADME
T3 sequence (P00178 whole entry): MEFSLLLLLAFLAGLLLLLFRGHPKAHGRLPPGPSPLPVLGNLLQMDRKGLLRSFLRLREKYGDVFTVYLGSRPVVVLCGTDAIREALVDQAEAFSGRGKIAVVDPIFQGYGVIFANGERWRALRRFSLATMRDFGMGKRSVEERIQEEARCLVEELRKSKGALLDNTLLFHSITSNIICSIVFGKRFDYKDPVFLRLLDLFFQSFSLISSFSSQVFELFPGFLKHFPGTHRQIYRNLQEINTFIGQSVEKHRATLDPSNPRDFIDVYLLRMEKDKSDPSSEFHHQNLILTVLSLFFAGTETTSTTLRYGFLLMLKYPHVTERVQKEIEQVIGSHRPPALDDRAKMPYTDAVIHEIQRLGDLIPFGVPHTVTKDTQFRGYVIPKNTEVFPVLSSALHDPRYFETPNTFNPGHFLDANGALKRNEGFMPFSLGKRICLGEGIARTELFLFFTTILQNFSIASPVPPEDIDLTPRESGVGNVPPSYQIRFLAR

CYP2B4 = biological target: T4, CYP2B4 (Oryctolagus cuniculus, UniProt P00178); assay: as §3; type: ADME; settings: rabbit, probe 7-EFC (O-deethylation)
T4 sequence (P00178 whole entry): T3 sequence (P00178 whole entry)

[6] = biological target: Cytochrome P450 2E1 (Oryctolagus cuniculus) (UniProt P08682); assay: Mechanism based inhibition of rabbit cytochrome P450 CYP2E1 measured by 7-EFC O-deethylation activity; settings: probe 7-EFC (O-deethylation)
Cytochrome P450 2B1 [7] = biological target: T2, Cytochrome P450 2B1; assay: Mechanism based inhibition of rat cytochrome P450 CYP2B1 partition ratio; type: ADME
CYP2B1 = biological target: T5, CYP2B1 (Rattus norvegicus, UniProt P00176); assay: (§4) Mechanism based inhibition of rat cytochrome P450 CYP2B1 measured by 7-pentoxyresorufin […] activity (PROD); type: ADME; settings: rat, probe 7-pentoxyresorufin ([…], PROD)
T5 sequence (P00176 whole entry): T2 sequence (P00176 whole entry)

Cytochrome P450 2B1 [8] = biological target: T2, Cytochrome P450 2B1; assay: as §4; type: ADME
Cytochrome P450 1A2 = biological target: T6, Cytochrome P450 1A2 (Rattus norvegicus, UniProt P04799); assay: (§5) Mechanism based inhibition of rat cytochrome P450 CYP1A2 measured by 7-methoxyresorufin O-demethylation (MROD); type: ADME
T6 sequence (P04799 whole entry): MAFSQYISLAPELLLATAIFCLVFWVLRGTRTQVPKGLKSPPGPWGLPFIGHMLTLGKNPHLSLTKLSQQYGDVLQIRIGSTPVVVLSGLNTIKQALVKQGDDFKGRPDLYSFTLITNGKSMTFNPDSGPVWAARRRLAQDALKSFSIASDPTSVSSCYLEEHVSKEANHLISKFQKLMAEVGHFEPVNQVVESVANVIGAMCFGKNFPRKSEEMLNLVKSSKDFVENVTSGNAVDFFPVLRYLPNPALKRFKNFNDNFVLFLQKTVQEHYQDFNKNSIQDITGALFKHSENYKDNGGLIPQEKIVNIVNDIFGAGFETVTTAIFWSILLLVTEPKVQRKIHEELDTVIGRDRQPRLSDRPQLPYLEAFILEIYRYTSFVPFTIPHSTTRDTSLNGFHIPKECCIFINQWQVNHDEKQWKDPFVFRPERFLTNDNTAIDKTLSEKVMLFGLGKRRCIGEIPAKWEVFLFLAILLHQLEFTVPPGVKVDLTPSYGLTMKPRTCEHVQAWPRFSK

CYP1A2 [9] = biological target: T7, CYP1A2 (Rattus norvegicus, UniProt P04799); assay: as §5; type: ADME; settings: rat, probe 7-methoxyresorufin (O-demethylation, MROD)
T7 sequence (P04799 whole entry): T6 sequence (P04799 whole entry)

Cytochrome P450 2B4 [10] = biological target: T3, Cytochrome P450 2B4; assay: Mechanism based inhibition of rabbit cytochrome P450 CYP2B4 partition ratio; type: ADME
CYP1A2 [11] = biological target: T8, CYP1A2 (Homo sapiens, UniProt P05177); assay: Mechanism based inhibition of human cytochrome P450 1A2; type: ADME
T8 sequence (P05177 whole entry): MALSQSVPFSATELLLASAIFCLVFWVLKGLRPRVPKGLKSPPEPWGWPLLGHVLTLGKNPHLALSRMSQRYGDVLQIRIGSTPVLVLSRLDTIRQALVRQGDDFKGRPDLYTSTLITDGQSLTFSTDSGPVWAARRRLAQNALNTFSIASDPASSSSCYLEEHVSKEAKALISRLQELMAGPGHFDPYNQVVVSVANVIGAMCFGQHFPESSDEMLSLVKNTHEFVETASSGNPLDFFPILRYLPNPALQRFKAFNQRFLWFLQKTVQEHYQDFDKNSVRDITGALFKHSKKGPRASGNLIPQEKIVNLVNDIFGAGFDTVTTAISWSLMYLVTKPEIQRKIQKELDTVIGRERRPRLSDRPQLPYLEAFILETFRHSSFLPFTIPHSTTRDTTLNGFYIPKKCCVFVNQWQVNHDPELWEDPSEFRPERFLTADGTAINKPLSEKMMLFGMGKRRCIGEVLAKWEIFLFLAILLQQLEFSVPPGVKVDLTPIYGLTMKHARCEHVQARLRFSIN

T1 sequence (P08684 whole entry): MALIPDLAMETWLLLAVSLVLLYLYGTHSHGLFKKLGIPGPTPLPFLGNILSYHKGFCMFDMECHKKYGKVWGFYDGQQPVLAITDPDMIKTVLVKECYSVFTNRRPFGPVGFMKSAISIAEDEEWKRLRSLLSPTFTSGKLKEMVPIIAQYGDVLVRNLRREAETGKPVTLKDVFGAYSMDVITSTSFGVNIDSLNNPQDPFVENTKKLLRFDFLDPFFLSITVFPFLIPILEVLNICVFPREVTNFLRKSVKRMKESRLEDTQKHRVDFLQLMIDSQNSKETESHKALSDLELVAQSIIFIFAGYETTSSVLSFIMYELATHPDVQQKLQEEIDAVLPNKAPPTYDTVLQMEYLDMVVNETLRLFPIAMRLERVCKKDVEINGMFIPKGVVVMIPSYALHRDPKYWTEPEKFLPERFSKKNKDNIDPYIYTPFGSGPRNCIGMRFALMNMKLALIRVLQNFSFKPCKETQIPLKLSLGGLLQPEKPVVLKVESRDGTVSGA
Chain of Cytochrome P450 2E1 (Oryctolagus cuniculus) (P08682 whole entry, looked up): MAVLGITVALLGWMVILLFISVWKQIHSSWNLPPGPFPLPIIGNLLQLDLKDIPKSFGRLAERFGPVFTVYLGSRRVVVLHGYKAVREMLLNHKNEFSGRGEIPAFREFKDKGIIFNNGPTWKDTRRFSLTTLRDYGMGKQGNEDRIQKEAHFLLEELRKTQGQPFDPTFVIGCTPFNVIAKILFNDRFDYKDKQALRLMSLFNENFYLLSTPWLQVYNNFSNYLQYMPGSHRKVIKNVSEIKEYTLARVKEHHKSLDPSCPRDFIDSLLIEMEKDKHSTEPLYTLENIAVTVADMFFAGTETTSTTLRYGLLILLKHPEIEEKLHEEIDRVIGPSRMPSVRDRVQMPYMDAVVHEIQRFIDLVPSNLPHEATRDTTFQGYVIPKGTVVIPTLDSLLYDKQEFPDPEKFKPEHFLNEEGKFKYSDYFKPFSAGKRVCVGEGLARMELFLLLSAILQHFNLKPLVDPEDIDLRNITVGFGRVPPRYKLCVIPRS
Chain of CYP2D6 (P10635 whole entry): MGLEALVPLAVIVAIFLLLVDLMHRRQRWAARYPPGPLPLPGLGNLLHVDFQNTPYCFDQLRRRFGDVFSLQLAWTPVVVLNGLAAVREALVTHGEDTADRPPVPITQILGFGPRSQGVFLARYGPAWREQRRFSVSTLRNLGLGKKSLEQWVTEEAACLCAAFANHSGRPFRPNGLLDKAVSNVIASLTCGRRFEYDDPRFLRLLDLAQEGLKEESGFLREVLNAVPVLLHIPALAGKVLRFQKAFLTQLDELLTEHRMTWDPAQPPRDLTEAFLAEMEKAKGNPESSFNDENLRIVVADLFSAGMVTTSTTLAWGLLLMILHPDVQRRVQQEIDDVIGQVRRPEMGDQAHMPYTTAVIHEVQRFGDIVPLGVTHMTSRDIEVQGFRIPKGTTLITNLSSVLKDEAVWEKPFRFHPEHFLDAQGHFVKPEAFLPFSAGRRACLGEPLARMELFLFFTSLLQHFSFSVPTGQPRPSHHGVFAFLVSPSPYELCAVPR
Chain of Cytochrome P450 2D6 (P10635 whole entry): as above
Chain of CYP3A4 (P08684 whole entry): as the sequence (P08684 whole entry) above

O=C(NC(/C=C/S(=O)(=O)c1ccccc1)CCc1ccccc1)C(Cc1ccccc1)NC(=O)N1CCOCC1 (centres undefined) was tested, and the mechanism based inhibition (Cytochrome P450 3A4 [1]) was “Cytochrome P450 mechanistic inhibitor: PMID 11038163”.
For Fc1cnc(N2CCN(CC3=NC(c4ccccc4)=NC3)CC2)nc1, the Ki (Cytochrome P450 2D6) was 4800 nM and the kinact (CYP2D6) was 0.00233 s⁻¹.
With C=C(C)C(CC/C(C)=C/COc1c2ccoc2cc2oc(=O)ccc12)OC(C)(C)C(O)CC/C(C)=C/COc1c2ccoc2cc2oc(=O)ccc12 (centres undefined) the mechanism based inhibition (Cytochrome P450 3A4 [2]) was “Cytochrome P450 mechanistic inhibitor: PMID 10859150”, the kinact (CYP3A4) was 0.000833 s⁻¹ and the Ki (Cytochrome P450 3A4 [3]) was 310 nM.
In the case of O=C(NCCc1ccc(Br)cc1)C(F)Cl (centres undefined), the mechanism based inhibition (Cytochrome P450 2B1 [4]) is reported as “Cytochrome P450 mechanistic inhibitor: PMID 1971568”.
With O=C(NCCc1ccc([N+](=O)[O-])cc1)C(F)Cl (centres undefined) the mechanism based inhibition (Cytochrome P450 2B1 [4]) was “Cytochrome P450 mechanistic inhibitor: PMID 1971568”.
C#CC(C)(C)C showed a Ki (Cytochrome P450 2B4 [5]) of 75000 nM, a kinact (CYP2B4) of 0.00383 s⁻¹ and a kinact [6] of 0.00333 s⁻¹.
C#Cc1ccc2ccc(=O)oc2c1 was tested, and the partition_ratio (Cytochrome P450 2B1 [7]) was 25.
In the case of C#Cc1cc2ccccc2c2ccccc12, the kinact (CYP2B1) is reported as 0.0075 s⁻¹, the Ki (Cytochrome P450 2B1 [8]) is reported as 140 nM and the Ki (Cytochrome P450 1A2) is reported as 30 nM. The kinact (CYP1A2 [9]) was 0.000667 s⁻¹.
C#CCN(C)C(C)CCCCC.C#CCN[C@@H](C)CCCCC.C#CCN[C@H](C)CCCCC (centres undefined) gave a kinact (CYP2B1) of 0.00133 s⁻¹ and a Ki (Cytochrome P450 2B1 [8]) of 800 nM.
C#CC(C)OC(C)(C)C (centres undefined) was tested, and the Ki (Cytochrome P450 2B4 [5]) was 37000 nM, the mechanism based inhibition (Cytochrome P450 2B4 [5]; rabbit) was “Cytochrome P450 mechanistic inhibitor: PMID 15751959” and the kinact (CYP2B4) was 0.0533 s⁻¹. For the same compound, the partition_ratio (Cytochrome P450 2B4 [10]) was 12 and the kinact [6] was 0.002 s⁻¹.
In the case of Cc1nc2c([nH]1)c(=O)n(C)c(=O)n2CC1CCCCC1, the kinact (CYP1A2 [11]) is reported as 0.0148 s⁻¹.
